Source: patent publication US7601717B2, “Pterin analogs” (BioMarin Pharmaceutical Inc., priority 2008, dated 2009)
Counter-ions that a name gives are not always drawn.

Columns and labels:
[1] = HPLC with ECD and fluorescence detection of biopterins in plasma of dosed monkeys; assay type: in vivo, cynomolgus monkeys; details: plasma 2 hours post-administration, 2% MeOH mobile phase, FIG. 16
Protocol: An HPLC method using Electrochemical Detection (ECD) and Fluorescence (FL) detection is advantageous as it allows for the measurement of each of the discrete biopterin compounds (BH4, BH2 and B) as well as analog, such as prodrug, forms (e.g., Val-BH4, Val-BH2, and Val-B).
The concentrations of different biopterins (BH4, BH2 and B) and Val-biopterins are determined by initially using reverse phase HPLC for separation, followed by ECD and FL detection. BH4 and Val-BH4 are measured using ECD in which BH4 and Val-BH4 are oxidized by electrode 1 to quinonoid dihydrobiopterin forms (qBH2 or Val-qBH2, respectively), a short-lived dihydrobiopterin intermediate, and then reduced back to BH4 or Val-BH4 at electrode 2. The detector then uses the current generated by this reduction reaction to determine the concentration of BH4 or Val-BH4, respectively. BH2, Val-BH2, B and Val-B are measured by fluorescence detection. […] This is desirable because BH2 is not fluorescently active or easily measured and must be converted to biopterin, which is easily measured using fluorescence. […] In one embodiment, the biopterin analogs, such as valine biopterin derivatives, are measured using a 10% MeOH-containing mobile phase whereas the biopterins are measured using a 2% MeOH-containing mobile phase.
The compound of Example 5 can be detected in buffer and by extraction using this assay. […]

[2] = test system: human umbilical vein endothelial cells (HUVEC); assay: Nitric oxide production (nitrite+nitrate) in NAS-treated HUVEC; assay type: cell-based; details: 5-22 hours treatment
Protocol: Cultured human umbilical vein endothelial cells (HUVEC) were pretreated with 3 mM N-acetylserotonin (NAS), an inhibitor of the enzyme sepiapterin reductase. Inhibition of this pathway typically results in loss of endogenous BH4, depressing the endogenous eNOS activity far below normal and provides an assay to test for restoration of eNOS activity.
Thus, subconfluent HUVECs were seeded in a 24-well plate and grown overnight in EGM2 medium (full growth medium). The next morning, fresh medium was added to the cells (300 μL/well), 3 mM N-acetylserotonin (NAS), an inhibitor of the enzyme sepiapterin reductase (a member of the synthesis pathway for endogenous BH4) was added to the cells to decrease the endogenous BH4 levels. After an incubation of 1.5 hours, 50, 100, or […] BH4 or compound of Example 5, Example 6, Example 7, or Example 9 were added to the cells. The cells were allowed to react with the BH4 or the compound of Example 5, Example 7, or Example 9 for 5-22 hours. The production of NO was then measured as changes in total (nitrite+nitrate) by the Griess reaction subsequent to nitrate reductase treatment. 90 μL of reaction mixture (25 mM Tris-HCL, pH7.4, 1 μM FAD, 1 μM FMN, 100 μM L-Arginin 2.5 mM CaCl2, 1 mM NADPH, 0.04 mg/ml Calmodulin) was mixed with 5 μl of eNOS (15 units/ml) and 5 μl of BH4 or BH4 analogs (1, 10, 100 μM), followed by incubation in a 37° C. water bath for 90 minutes. Then 100 μl of water and 20 μl of the nitrite fluorescent probe DAN (2,3-diaminonaphthalene, 316 μM) were added to each reaction and incubated at room temperature for 10 minutes. The dye DAN reacts with nitrite to yield the fluorescent product naphthotriazole. The reaction was then stopped by adding 10 μl of NaOH (2.8 M), and the fluorescence of the samples was read using excitation frequency 375 nm and emission frequency 415 nm. The percentage of nitrite+nitrate with BH4 or compound of Example 5, Example 7, or Example 9 is shown in FIG. 17 (after 5 hours); FIG. 18 (after 17 hours); and FIG. 19 (after 22 hours). The results for Example 6 are shown in FIG. 20 (after 5 hours) and FIG. 21 (after 20 hours).

[3] = Pharmacokinetics and bioavailability, single intravenous or oral doses, partial Latin square crossover; assay type: in vivo, male cynomolgus monkeys; details: male, cynomolgus monkey, plasma; intravenous; title 5 mg/kg, text 2 mg/kg; n=6
eNOS = eNOS (Homo sapiens, UniProt P29474); assay: Cell-free eNOS activity assay reconstituted from purified components; assay type: biochemical; details: 1, 10, 100 μM, 90 minutes at 37° C., nitrite by DAN fluorescence
Protocol: Also tested was the effect of BH4 analogs compared to free BH4 on stimulation of eNOS activity in a cell-free assay system reconstituted from purified components. 90 μL of reaction mixture (25 mM Tris-HCL, pH7.4, 1 μM FAD, 1 μM FMN, 100 μM L-Arginine, 2.5 mM CaCl2, 1 mM NADPH, 0.04 mg/ml Calmodulin) was mixed with 5 μl of eNOS (15 units/ml) and 5 μl of BH4 or BH4 analogs (1, 10, 100 μM), followed by incubation in a 37° C. water bath for 90 minutes. Then 100 μl of water and 20 μl of the nitrite fluorescent probe DAN (2,3-diaminonaphthalene, 316 μM) were added to each reaction and incubated at room temperature for 10 minutes. The dye DAN reacts with nitrite to yield the fluorescent product naphthotriazole. The reaction was then stopped by adding 10 μl of NaOH (2.8 M), and the fluorescence of the samples was read using excitation frequency 375 nm and emission frequency 415 nm.

height of the BH4 peak compared with monkeys administered BH4 [1]: several fold higher
AUC(0-inf) [3]: 5.24 µM·h
AUC(0-t) [3]: 4.17 µM·h
Cmax [3]: 13.1 µM
Tmax [3]: 4.8 min
SMILES: CC(C)[C@H](N)C(=O)O[C@@H](C)[C@H](O)[C@H]1CNc2nc(N)[nH]c(=O)c2N1 [Example 5, 2-Amino-3-methyl-butyric acid 2-(2-amino-4-oxo-3,4,5,6,7,8-hexahydro-pteridin-6-yl)-2-hydroxy-1-methyl-ethyl ester dihydrochloride]
NO production (nitrite+nitrate) [2]: increased NO production in a dose-dependent manner
potentiation of eNOS activity (eNOS): did not significantly potentiate eNOS activity
